Test results from ChEMBL document CHEMBL1143449, “Exploring the connection unit in the HDAC inhibitor pharmacophore model: novel uracil-based hydroxamates” (Bioorg Med Chem Lett, 2005).

Key:
[1] = Inhibitory concentration against Histone deacetylase 1B in maize; format: functional, Zea mays
Zea mays [2] = test: Selectivity for class I (HD1B) against class II (HD1A) histone deacetylases; format: functional
[3] = Inhibitory concentration against Histone deacetylase 1A in maize; format: functional, Zea mays
Histone deacetylase HD2 = biological target: T1, Histone deacetylase HD2 (Zea mays, UniProt Q94F81); test: Inhibitory concentration against Histone deacetylase 2 in maize; format: functional
T1 sequence (Q94F81 whole entry): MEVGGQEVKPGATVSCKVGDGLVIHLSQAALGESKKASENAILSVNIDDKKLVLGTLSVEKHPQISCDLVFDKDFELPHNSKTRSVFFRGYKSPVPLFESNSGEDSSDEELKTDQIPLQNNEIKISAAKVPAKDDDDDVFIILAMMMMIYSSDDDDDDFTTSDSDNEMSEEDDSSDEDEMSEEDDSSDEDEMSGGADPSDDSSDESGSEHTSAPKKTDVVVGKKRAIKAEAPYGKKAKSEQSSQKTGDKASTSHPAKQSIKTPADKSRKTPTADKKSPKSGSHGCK

Zea mays [4] = test: Selectivity of for class II (HD1A) against class I (HD1B) histone deacetylases; format: functional

Compound	IC50 [1] [nM]	Selectivity index (Zea mays [2])	IC50 [3] [nM]	IC50 (Histone deacetylase HD2) [nM]	Selectivity index (Zea mays [4])
O=C(CCCSc1nc(O)cc(Cc2ccccc2)n1)NO	251	3.5	885		
O=C(CCCCSc1nc(O)cc(Cc2ccccc2)n1)NO	130		181	125	
O=C(/C=C/Sc1nc(O)cc(Cc2ccccc2)n1)NO	7400		13300	9000	
CCc1ccccc1-c1cc(O)nc(SCCCCCC(=O)NO)n1	48		25	35	2
CCCc1cc(O)nc(SCCCCCC(=O)NO)n1	116		66	135	
O=C(CC1CSc2nc(Cc3ccccc3)cc(=O)n21)NO (stereo not drawn)	30200		38200	31800	
O=C(CCCCCCC(=O)Nc1ccccc1)NO [VORINOSTAT]	28				
O=C(CCCCCCCSc1nc(O)cc(Cc2ccccc2)n1)NO	193		64	61	3
O=C(CCCCCCSc1nc(O)cc(Cc2ccccc2)n1)NO	76		53	37	
O=C(CCCCCSc1nccc(O)n1)NO	239		132	213	
O=C(CCCSc1nc(Cc2ccccc2)cc(=O)[nH]1)NO				229	
O=C(CCCCCSc1nc(-c2ccccc2)cc(=O)[nH]1)NO	19		6	12	3.2
O=C(CCSc1nc(O)cc(Cc2ccccc2)n1)NO	41	3.1	126	38	
O=C(O)[C@@H]1C[C@]2(C(=O)O)C=C[C@@H](O)[C@@H](C2)O1	0.4	2	0.8	7	
O=C(CCCCCSc1nc(Cc2ccccc2)cc(=O)[nH]1)NO			29	18	
Cc1cc(O)nc(SCCCCCC(=O)NO)n1	112		78	110	
